Assay results taken from US20030216444A1, “Benzoylpyridine derivative or its salt, fungicide containing it as an active ingredient, its production process and intermediate for producing it” (priority 2000, published 2003).

melting point	Structure (SMILES)
145 to 147 °C	COc1cc(C)c(C(=O)c2c(OC)cnc(Br)c2C(F)(F)F)c(OC)c1OC [compound No. 124, 4-(2,3,4-trimethoxy-6-methylbenzoyl)-2-bromo-3-trifluoromethyl-5-methoxypyridine]
88 to 93 °C	COc1cc(C)c(C(=O)c2c(C)cncc2Br)c(OC)c1OC [compound No. 228, 4-(2,3,4-trimethoxy-6-methylbenzoyl)-3-bromo-5-methylpyridine]
125 to 127 °C	COc1cc(C)c(C(=O)c2c(C(F)(F)F)ccnc2OC)cc1OC [compound No. 32, 3-(4,5-dimethoxy-2-methylbenzoyl)-2-methoxy-4-trifluoromethylpyridine]
75 to 77 °C	COc1cc(C)c(C(=O)c2c(Cl)cncc2C(F)(F)F)c(OC)c1OC [compound No. 102, 4-(2,3,4-trimethoxy-6-methylbenzoyl)-3-chloro-5-trifluoromethylpyridine]
60 to 61 °C	COc1cc(C)c(C(=O)c2c(Cl)cnc(Cl)c2Cl)c(OC)c1OC [compound No. 186, 4-(2,3,4-trimethoxy-6-methylbenzoyl)-2,3,5-trichloropyridine]
109 to 111 °C	COc1cc(C)c(C(=O)c2c(Cl)cncc2Cl)c(OC)c1OC [compound No. 191, 4-(2,3,4-trimethoxy-6-methylbenzoyl)-3,5-dichloropyridine]

More lines, now with the values behind:

Structure (SMILES)	melting point
COc1cc(C)c(C(=O)c2cnccc2C(F)(F)F)c(OC)c1OC [compound No. 7, 3-(2,3,4-trimethoxy-6-methylbenzoyl)-4-trifluoromethylpyridine]	59 to 62 °C
COc1cc(C)c(C(=O)c2c(Cl)cnc(Cl)c2C(F)(F)F)c(OC)c1OC [compound No. 90, 4-(2,3,4-trimethoxy-6-methylbenzoyl)-2,5-dichloro-3-trifluoromethylpyridine]	106 to 109 °C
COc1cc(C)c(C(=O)c2c(OC)cnc(Cl)c2C(F)(F)F)c(OC)c1OC [compound No. 123, 4-(2,3,4-trimethoxy-6-methylbenzoyl)-2-chloro-3-trifluoromethyl-5-methoxypyridine]	117 to 119 °C
COc1cc(C)c(C(=O)c2c(Cl)nc(Cl)c(C(C)=O)c2C(F)(F)F)c(OC)c1OC [compound No. 62, 5-(2,3,4-trimethoxy-6-methylbenzoyl)-3-acetyl-2,6-dichloro-4-trifluoromethylpyridine]	109 to 112 °C
COc1cc(C)c(C(=O)c2c(OC)cnc(Br)c2Cl)c(OC)c1OC [compound No. 245, 4-(2,3,4-trimethoxy-6-methylbenzoyl)-2bromo-3-chloro-5-methoxypyridine]	97 to 99 °C
COc1cc(C)c(C(=O)c2c(C(F)(F)F)ccnc2Cl)c(OC)c1OC [compound No. 11, 3-(2,3,4-trimethoxy-6-methylbenzoyl)-2-chloro-4-trifluoromethylpyridine]	110 to 112 °C
COc1cc(C)c(C(=O)c2c(OC)cncc2C(F)(F)F)c(OC)c1OC [compound No. 122, 4-(2,3,4-trimethoxy-6-methylbenzoyl)-3-methoxy-5-trifluoromethylpyridine]	103 to 106 °C
COc1cc(C)c(C(=O)c2c(C(F)(F)F)cc(Cl)nc2Cl)c(OC)c1OC [compound No. 3, 3-(2,3,4-trimethoxy-6-methylbenzoyl)-2,6-dichloro-4-trifluoromethylpyridine]	81 to 83 °C
COc1cc(C)c(C(=O)c2c(C(F)(F)F)ccnc2Cl)cc1OCc1ccccc1 [compound No. 27, 3-(5-benzyloxy-4-methoxy-2-methylbenzoyl)-2-chloro-4-trifluoromethylpyridine]	116 to 117 °C
COc1cc(C)c(C(=O)c2c(OC)cnc(Cl)c2Cl)c(OC)c1OC [compound No. 193, 4-(2,3,4-trimethoxy-6-methylbenzoyl)-2,3-dichloro-5-methoxypyridine]	98 to 99 °C
